PubChem BioAssay (NCI)
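48-hour exposure; five concentrations; linearly interpolated endpoints. GI50: concentration for 50% inhibition of growth. TGI: concentration producing complete growth inhibition.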

Columns and labels:
Assay in all cases: NCI-60 cell line screen, 48 h
HCC-2998 colon = system: HCC-2998 colon
SR leukemia = system: SR leukemia
SN12C renal = system: SN12C renal
UO-31 renal = system: UO-31 renal
SNB-19 CNS = system: SNB-19 CNS
UACC-62 melanoma = system: UACC-62 melanoma
SF-295 CNS = system: SF-295 CNS
NCI/ADR-RES ovarian = system: NCI/ADR-RES ovarian
DMS 273 small cell lung = system: DMS 273 small cell lung
M19-MEL melanoma = system: M19-MEL melanoma

SMILES	GI50 (HCC-2998 colon)	TGI (HCC-2998 colon)	GI50 (SR leukemia)	TGI (SR leukemia)	GI50 (SN12C renal)	TGI (SN12C renal)	GI50 (UO-31 renal)	TGI (UO-31 renal)	GI50 (SNB-19 CNS)	TGI (SNB-19 CNS)	GI50 (UACC-62 melanoma)	TGI (UACC-62 melanoma)	GI50 (SF-295 CNS)	GI50 (NCI/ADR-RES ovarian)	TGI (SF-295 CNS)	TGI (NCI/ADR-RES ovarian)	TGI (DMS 273 small cell lung)	TGI (M19-MEL melanoma)
COc1ccc2c(c1)cn1c3ccc(OC)cc3[nH]c(=O)c21	< 0.0188 µM	0.0679 µM	< 0.01 µM	1.1 µM	< 0.0232 µM	1.65 µM	< 0.0169 µM	1.77 µM	< 0.0405 µM	7.36 µM	< 0.0174 µM	1.39 µM	< 0.0169 µM	< 0.01 µM	–	–	–	–
NC(CSC(c1ccccc1)(c1ccccc1)c1ccc(Br)cc1)C(=O)O (stereo not given)	0.174 µM	1.5 µM	1.33 µM	> 38.7 µM	0.3 µM	49.8 µM	12.3 µM	> 100 µM	0.296 µM	> 76.6 µM	0.17 µM	17.4 µM	0.0764 µM	0.976 µM	> 100 µM	4.54 µM	–	–
O=C(Nc1ccc(-n2cc(-c3ccncc3)c(-c3ccc(Cl)c(O)c3)n2)cc1)c1ccc(Cl)c(C(F)(F)F)c1	1.69 µM	6.96 µM	1.37 µM	> 26.2 µM	4.39 µM	> 83.6 µM	0.684 µM	2.42 µM	4.16 µM	> 100 µM	2.21 µM	7.6 µM	0.216 µM	2.77 µM	0.475 µM	> 100 µM	–	–
c1ccc(Oc2cnc3ccccc3n2)cc1	> 100 µM	> 100 µM	55.3 µM	> 100 µM	> 100 µM	> 100 µM	39.1 µM	> 100 µM	> 100 µM	> 100 µM	85.3 µM	> 100 µM	36.4 µM	> 100 µM	> 100 µM	> 100 µM	–	–
Cc1cnc2n(c1=O)Cc1ccccc1CO2	16 µM	31.4 µM	9.11 µM	27.9 µM	23.2 µM	71.3 µM	18.2 µM	44.5 µM	21.7 µM	61.6 µM	14.7 µM	28.7 µM	33.2 µM	22.7 µM	> 100 µM	71.4 µM	–	–
COc1cc(C2C(C(=O)Nc3ccccc3C)=C(C)NC(C)=C2C(=O)Nc2ccccc2C)ccc1O	–	> 100 µM	–	–	–	> 100 µM	–	> 100 µM	–	> 100 µM	–	> 100 µM	–	–	> 100 µM	–	> 100 µM	> 100 µM
Cc1cc2c(C=O)[nH]nc2c(C#N)c1C	–	> 100 µM	–	–	–	78.6 µM	–	> 100 µM	–	> 100 µM	–	> 100 µM	–	–	> 100 µM	–	> 100 µM	> 100 µM
CC/C(=C(/c1ccc(Cl)cc1)c1ccc(OCCCN(C)C)cc1)c1ccc(OC)cc1	8.74 µM	17.4 µM	0.983 µM	2.27 µM	5.05 µM	11.8 µM	5.3 µM	11.8 µM	1.88 µM	5.78 µM	1.14 µM	2.5 µM	0.918 µM	7.27 µM	1.87 µM	16.3 µM	–	–
COc1ccc(/C=N/C2=C(C#N)C(c3ccccc3)c3ccc4ccccc4c3O2)cc1 (stereo not given)	0.92 µM	> 42 µM	0.304 µM	> 75.8 µM	0.68 µM	> 100 µM	0.368 µM	> 100 µM	0.54 µM	> 100 µM	0.491 µM	> 100 µM	0.314 µM	0.262 µM	> 100 µM	–	–	–
C=CCOc1ccc2c(c1)CC[C@@H]1[C@@H]2CC[C@]2(C)C(=O)/C(=N/O)C[C@@H]12	1.09 µM	3.06 µM	2.3 µM	7.84 µM	4.01 µM	> 44.2 µM	2.39 µM	39.6 µM	11.4 µM	> 55.1 µM	14.6 µM	32.5 µM	14.6 µM	6.92 µM	> 68.2 µM	> 52 µM	–	–
O=C(NCCOCCO)c1ccc(O)cc1	–	–	–	–	–	> 100 µM	–	> 100 µM	–	–	–	> 100 µM	–	–	–	–	> 100 µM	> 100 µM
COc1ccc(-c2nn(C(=O)c3cc(OC)c(OC)c(OC)c3)c3cc(N)ccc23)cc1	0.0349 µM	3.79 µM	< 0.01 µM	–	< 0.0162 µM	10.8 µM	< 0.0196 µM	5.05 µM	< 0.0171 µM	> 100 µM	< 0.01 µM	15.3 µM	< 0.01 µM	< 0.01 µM	1.75 µM	2.28 µM	–	–
CCn1cc(C(=O)O)c(=O)c2cc(F)c(N3CCNCC3)nc21	–	> 100 µM	–	> 100 µM	–	> 100 µM	–	> 100 µM	–	> 100 µM	–	> 100 µM	–	–	> 100 µM	–	> 100 µM	> 100 µM
CCc1cc(Cc2cc(CC)cc(C(C)(C)C)c2O)c(O)c(C(C)(C)C)c1	2.42 µM	6.52 µM	3.28 µM	18.7 µM	3.82 µM	13.7 µM	2.79 µM	11.7 µM	3.13 µM	11.8 µM	2.4 µM	7.85 µM	2.06 µM	3.94 µM	4.88 µM	14.7 µM	–	–
COc1cc(-c2nc3cc(Cl)c(Cl)cc3[nH]2)ccc1OCC(=O)N=Nc1c(O)[nH]c2ccccc12	0.419 µM	1.43 µM	0.301 µM	> 100 µM	0.506 µM	1.8 µM	> 52.6 µM	> 100 µM	0.657 µM	5.35 µM	1.41 µM	2.75 µM	1.28 µM	> 79.9 µM	2.71 µM	> 100 µM	–	–
CN=C(NC#N)NCc1ccccc1	–	> 100 µM	–	> 100 µM	–	> 100 µM	–	> 100 µM	–	> 100 µM	–	–	–	–	> 100 µM	–	> 100 µM	> 100 µM
